Reference: US20260240895A1, “BETA-GLUCAN PARTICLES FOR TRAINED IMMUNITY” (THE PROVOST, FELLOWS, FOUNDATION SCHOLARS, AND THE OTHER …, priority 2022, published 2026)
Where two headings read alike, the source gives them in different places.

How the values were obtained:
[1] = system: human monocytes / monocyte-derived macrophages (hMDM); test: Human monocyte training assay: cytokine ELISA after restimulation of monocyte-derived macrophages; format: cell-based
human monocytes = test: TNF production by monocytes 24 h post-training (monocyte activation); format: cell-based; conditions: TNF 24 h after dWGP
[2] = system: mTOR (phospho-S6 ribosomal protein); test: Intracellular phospho-S6 staining by flow cytometry (mTOR activity); format: cell-based, human; conditions: 15 min pre-treatment, dWGP 10 μg/mL 2 h
Description: To analyse phospho-S6 ribosomal protein activity after β-glucan treatment, PBMCs were isolated as above and resuspended in RPMI-1640 media supplemented with 10% human AB serum (Sigma-Aldrich) at 2×10^6/mL. Cells were first incubated with metabolic inhibitors for 15 min as indicated above. […] After the incubation time, cells were resuspended by vortexing quickly, washed in flow buffer; [PBS-1× (Gibco) supplemented with 5% heat inactivated FBS (Gibco) and 0.1% Sodium azide (Sigma)] and the following flow cytometry staining protocol was applied to all samples with up to 100,000 cells per sample. Cells were stained with fixable viability stain ZombieAqua™ (Biolegend) at the concentration of 1:500 for 15 minutes. Subsequently, samples were washed with flow buffer and incubated with anti-Dectin-1-PE (clone 15E2, Biolegend) antibody for Dectin-1 surface staining, then washed and fixed 20 minutes with IC Fixation Buffer (Invitrogen). […] All cells were subsequently washed with flow buffer and resuspended 20 minutes with IC Fixation Buffer (Invitrogen) for fixation. Cells were then washed with flow buffer, incubated at 4° C. for 30 minutes with Perm/Wash Buffer (BD Biosciences) containing anti-phospho-S6-PE (Ser235/236) (cloneD57.2.2E, Cell Signaling) at 1:200 for intracellular pS6 staining, and finally washed again with flow buffer. Compensation controls were obtained after staining UltraComp eBeads™ Compensation Beads (Invitrogen) with the appropriate antibodies. Cells were acquired on the BD flow cytometer Canto II with FACSDiva software. Data analysis and flow charts were performed using FlowJo software v.7.6 (TreeStar).

Dectin-1b = target: T1, Dectin-1b (Homo sapiens, UniProt Q9BXN2); test: hDectin1b-HEK293 NFκB-SEAP reporter cell assay (QuantiBlue); format: cell-based; conditions: for blocking of BGP- or dWGP-driven NFκB-SEAP activation: pre-incubation 1 h before BGP or dWGP 100 μg/mL; for NFκB-linked SEAP activity (Dectin-1b activation): β-glucans 1, 10 & 100 μg/mL, 6 h, relative to untreated cells
T1 construct: host or cells: HEK293 (HEK-Blue) NFκB-SEAP reporter cells
T1 sequence (Q9BXN2 1-201 isoform Q9BXN2-2): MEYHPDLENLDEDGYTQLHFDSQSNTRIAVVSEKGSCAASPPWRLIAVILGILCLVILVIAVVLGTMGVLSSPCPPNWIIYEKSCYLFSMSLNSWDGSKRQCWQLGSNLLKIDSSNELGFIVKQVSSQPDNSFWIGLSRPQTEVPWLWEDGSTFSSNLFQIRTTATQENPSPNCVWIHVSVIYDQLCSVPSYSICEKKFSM

Dectin-1 = target: T2, Dectin-1 (Homo sapiens, UniProt Q9BXN2); test: Surface Dectin-1 expression on monocytes by flow cytometry; format: cell-based; conditions: CytD 10 μM 1 h before dWGP 100 μg/mL 15 min
T2 construct: incubated with anti-Dectin-1-PE (clone 15E2, Biolegend) antibody for Dectin-1 surface staining; endogenous in cells; host or cells: primary human monocytes (PBMC from buffy coats)
T2 sequence (Q9BXN2 1-247): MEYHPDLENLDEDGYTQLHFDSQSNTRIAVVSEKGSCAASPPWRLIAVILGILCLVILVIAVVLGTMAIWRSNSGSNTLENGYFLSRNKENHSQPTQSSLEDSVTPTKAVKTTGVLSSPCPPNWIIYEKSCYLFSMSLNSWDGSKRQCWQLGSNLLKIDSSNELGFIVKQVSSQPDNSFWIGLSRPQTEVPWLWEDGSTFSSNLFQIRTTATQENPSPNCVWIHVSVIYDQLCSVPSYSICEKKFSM
Description: To analyse phospho-S6 ribosomal protein activity after β-glucan treatment, PBMCs were isolated as above and resuspended in RPMI-1640 media supplemented with 10% human AB serum (Sigma-Aldrich) at 2×10^6/mL. Cells were first incubated with metabolic inhibitors for 15 min as indicated above. […] After the incubation time, cells were resuspended by vortexing quickly, washed in flow buffer; [PBS-1× (Gibco) supplemented with 5% heat inactivated FBS (Gibco) and 0.1% Sodium azide (Sigma)] and the following flow cytometry staining protocol was applied to all samples with up to 100,000 cells per sample. Cells were stained with fixable viability stain ZombieAqua™ (Biolegend) at the concentration of 1:500 for 15 minutes. Subsequently, samples were washed with flow buffer and incubated with anti-Dectin-1-PE (clone 15E2, Biolegend) antibody for Dectin-1 surface staining, then washed and fixed 20 minutes with IC Fixation Buffer (Invitrogen). Alternatively, cells were incubated with anti-CD14-APC (clone M5E2, Biolegend), anti-CD16-PE-Cy7 (clone 3G8, Biolegend), anti-HLA-DR-BB515 (clone G46-6, BD Bioscience) at a concentration of 1:100 in flow buffer for 30 minutes at 4° C. All cells were subsequently washed with flow buffer and resuspended 20 minutes with IC Fixation Buffer (Invitrogen) for fixation. […]

[3] = system: bone marrow hematopoietic stem & progenitor cells (HSPC); test: In vivo induction of trained immunity: flow cytometry of mouse bone marrow HSPC populations; conditions: 0.050% w/w in chow, 4 weeks

With `O=CC[C@@H](O)[C@H](O)[C@H](O)CO` [2DG, 2-deoxyglucose] as the molecule, how does the “effect of inhibitor pre-treatment on β-glucan training (TNF after LPS restimulation)” value [1] read?
Its value is “abolished the ability of dWGP to increase LPS-restimulation responses”.

For `Cc1ccc(S(=O)(=O)/C=C/C#N)cc1` [BAY 11-7082], which “effect of inhibitor pre-treatment on early monocyte TNF production driven by dWGP” value (human monocytes) is on record?
Its value is “enhanced early TNF production”.

And the “effect of inhibitor pre-treatment on β-glucan training (TNF after LPS restimulation)” value ([1]; inhibitor added to monocytes prior to training with dWGP and/or BGP, LPS 10 ng/ml 6 h)?
Its value is “abolishment of LPS-restimulation driven TNF production in trained macrophages”.

Which “effect of inhibitor pre-treatment on dWGP-driven p-S6 / mTOR activation” value [2] does the source give for `Oc1cc(O)cc(/C=C/c2ccc(O)c(O)c2)c1` [PIC, picethanol] here?
The value was “did not affect mTOR up-regulation”.

And the “effect of inhibitor pre-treatment on early monocyte TNF production driven by dWGP” value (human monocytes)?
Its value is “block traditional pro-inflammatory signaling and monocyte TNF production”.

And the “effect of inhibitor pre-treatment on β-glucan training (TNF after LPS restimulation)” value [1]?
The value was “suppressed monocyte training driven by both BGP and dWGP”.

And the “blocking of BGP- or dWGP-driven NFκB-SEAP activation” value (Dectin-1b)?
The value was “blocking NFκB activation driven by dWGP and BGP”.

For `CO/C1=C\C(C)=C\[C@@H](C)[C@@H](O)[C@@H](C)C/C(C)=C/C=C/[C@H](OC)[C@@H]([C@@H](C)[C@@H](O)[C@H](C)[C@@]2(O)C[C@@H](O)[C@H](C)[C@@H](C(C)C)O2)OC1=O` [bafilomycin A1], which “effect of inhibitor pre-treatment on dWGP-driven p-S6 / mTOR activation” value [2] is on record?
Its value is “profound decrease in monocyte mTOR activation by dWGP”.

Which “effect of inhibitor on dWGP-induced loss of surface Dectin-1” value (Dectin-1) does the source give for `C=C1[C@@H](C)[C@H]2[C@H](Cc3ccccc3)NC(=O)[C@]23[C@H](OC(C)=O)/C=C/[C@@](C)(O)C(=O)[C@@H](C)C/C=C/[C@H]3[C@@H]1O` [cytD, cytochalasin-D] here?
The value was “blunts this effect”.

And the “effect of inhibitor pre-treatment on dWGP-driven p-S6 / mTOR activation” value [2]?
Its value is “blocked monocyte mTOR activation driven by dWGP”.

And the “effect of inhibitor pre-treatment on β-glucan training (TNF after LPS restimulation)” value [1]?
Its value is “preferentially blocked the training effect”.

Which “TNF production upon LPS restimulation (training)” value ([1]; monocytes exposed 24 h, matured 5 days, LPS 10 ng/ml 6 h, vs untrained) does the source give for Curdlan here?
Its value is “A trend toward some training was observed”.

What about the “NFκB-linked SEAP activity (Dectin-1b activation)” value (Dectin-1b) of the same molecule?
Its value is “drive NFκB signaling in a dose-dependent fashion”.

How did the “NFκB-linked SEAP activity (Dectin-1b activation)” value (Dectin-1b) turn out when Pustulan was run?
The value was “drive NFκB signaling in a dose-dependent fashion”.

For inulin, which “trained immunity-like effects (bone marrow progenitors, BMDM cytokines)” value [3] is on record?
Its value is “behaving similarly to control chow-fed mice”.

Which “effect of inhibitor pre-treatment on β-glucan training (TNF after LPS restimulation)” value [1] does the source give for laminarin here?
Its value is “more effective at all doses tested”.

And the “blocking of BGP- or dWGP-driven NFκB-SEAP activation” value (Dectin-1b)?
The value was “block Dectin-1b mediated NFκB activation”.
